# Experimental data from patent publication US8883856B2, “Compositions and methods for the treatment of inflammatory diseases using topoisomerase inhibitors” (priority 2000, dated 2014).
# System: neutrophils
# Experiment: Neutrophil degranulation (myeloperoxidase release)
# Format: cell-based, human
# Settings: CPPD crystals and fMLP
# Experimental: Eppendorf tubes containing either 25 mg of CPPD or 1 uM fMLP (with 0.5 uM cytochalasin B) were maintained at 37° C. To the tubes were added 0.5 mL of cells at 37° C. followed by shaking to initiate the reactions. At appropriate times, tubes were centrifuged at 10,000× g for 10 s and 0.4 mL of supernatant was stored at −20° C. for later assay. Myeloperoxidase (MPO) activity was measured by the increase in absorbance at 450 nm that accompanies the oxidation of o-dianisidine. Dianisidine (7.8 mg) was dissolved in 100 mL of 0.1 M citrate buffer, pH 5.5 and to a 1 mL cuvette were added 0.89 mL of the dianisidine solution, followed by […], […] and […]. MPO activity was determined from the change in absorbance (450 nm) per minute, (ΔA450), using the following relationship: Dianisidine oxidation (nmol/min)=50 ΔA450
structure (smiles),measurement,value
CC1=CC(=O)c2c(O)cccc2C1=O [plumbagin],neutrophil degranulation (myeloperoxidase release),inhibited
